# Test results taken from patent US8993574B2, “Pyrrole antifungal agents” (F2G Ltd, priority 2008, dated 2015).
# What was measured:
# Format in all cases: cell-based
# [1] = system: Aspergillus fumigatus AF293; test: MIC, RPMI medium; settings: for MIC grade, A. fumigatus: MIC banded into grades; for MIC: Aspergillus fumigatus, AF293, MIC banded into grades, read-out: MIC grade, A. fumigatus
# How it was run: (§1)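 Minimum inhibitory concentrations were determined in glucose-supplemented (2%) RPMI buffered to pH 7.0 with 0.135 M MOPS. Wells held 1−2×10^4 cfu/mL and compound from 50 to 0.05 mg/L, incubated 24-48 h at 35° C, with >80% growth reduction by OD 485 nm as endpoint.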
# [2] = system: Aspergillus fumigatus AF210; test: MIC, RPMI medium; settings: for MIC grade, A. fumigatus 210: MIC banded into grades; for MIC: Aspergillus fumigatus, AF210, MIC banded into grades, read-out: MIC grade, A. fumigatus 210
# How it was run: as §1
# [3] = system: Candida parapsilosis; test: MIC, RPMI medium; settings: 24-48 h at 35° C., >80% growth inhibition, banded into grades; for MIC: Lodderomyces parapsilosis
# How it was run: as §1
# [4] = system: Aspergillus flavus; test: MIC, RPMI medium; settings: MIC banded into grades; for MIC: Aspergillus flavus, read-out: MIC grade, A. flavus
# How it was run: as §1
# [5] = system: Aspergillus niger; test: MIC, RPMI medium; settings: MIC banded into grades; for MIC: Aspergillus niger, read-out: MIC grade, A. niger
# How it was run: as §1
# [6] = system: Aspergillus terreus AT49; test: MIC, RPMI medium; settings: for MIC grade, A. terreus 49: MIC banded into grades; for MIC: Aspergillus terreus, AT49, MIC banded into grades, read-out: MIC grade, A. terreus 49
# How it was run: as §1
# [7] = system: Aspergillus terreus AT4; test: MIC, RPMI medium; settings: for MIC grade, A. terreus: MIC banded into grades; for MIC: Aspergillus terreus, AT4, MIC banded into grades, read-out: MIC grade, A. terreus
# How it was run: as §1
# [8] = system: Candida krusei; test: MIC, RPMI medium; settings: 24-48 h at 35° C., >80% growth inhibition, banded into grades; for MIC: Pichia kudriavzevii
# How it was run: as §1
# [9] = system: Candida glabrata; test: MIC, RPMI medium; settings: 24-48 h at 35° C., >80% growth inhibition, banded into grades; for MIC: Nakaseomyces glabratus
# How it was run: as §1
# [10] = system: Candida tropicalis; test: MIC, RPMI medium; settings: 24-48 h at 35° C., >80% growth inhibition, banded into grades; for MIC: Candida tropicalis
# How it was run: as §1
# [11] = system: Candida albicans; test: MIC, RPMI medium; settings: 24-48 h at 35° C., >80% growth inhibition, banded into grades; for MIC: Candida albicans
# How it was run: as §1
# [12] = system: Aspergillus fumigatus AF293; test: MIC, YAG medium; settings: 24 h at 35° C, MIC banded into grades; for MIC: Aspergillus fumigatus, read-out: MIC grade, A. fumigatus
# How it was run: (§2)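 Broth microdilution in YAG medium tests compound over 50-0.05 mg/L against spores at 1−2×10^4 cfu/mL. After 24 h incubation at 35° C, optical density at 485 nm gives growth, and the MIC is the lowest concentration reducing it by more than 70% relative to untreated control.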
# [13] = system: Aspergillus fumigatus AF210; test: MIC, YAG medium; settings: 24 h at 35° C, MIC banded into grades; for MIC: Aspergillus fumigatus, read-out: MIC grade, A. fumigatus 210
# How it was run: as §2
# [14] = system: Aspergillus flavus; test: MIC, YAG medium; settings: 24 h at 35° C, MIC banded into grades; for MIC: Aspergillus flavus, 24 h, read-out: MIC grade, A. flavus
# How it was run: as §2
# [15] = system: Aspergillus niger; test: MIC, YAG medium; settings: 24 h at 35° C, MIC banded into grades; for MIC: Aspergillus niger, read-out: MIC grade, A. niger
# How it was run: as §2
# [16] = system: Aspergillus terreus AT49; test: MIC, YAG medium; settings: 24 h at 35° C, MIC banded into grades; for MIC: Aspergillus terreus, read-out: MIC grade, A. terreus 49
# How it was run: as §2
# [17] = system: Aspergillus terreus AT4; test: MIC, YAG medium; settings: 24 h at 35° C, MIC banded into grades; for MIC: Aspergillus terreus, read-out: MIC grade, A. terreus
# How it was run: as §2
Compound,MIC [1],MIC [2],MIC [3],MIC [4],MIC [5],MIC [6],MIC [7],MIC [8],MIC [9],MIC [10],MIC [11],MIC [12],MIC [13],MIC [14],MIC [15],MIC [16],MIC [17],other results
"COC(=O)Cn1ccc(-c2ccccc2)c1C(=O)C(=O)Nc1ccc(N2CCN(c3cc(C)cc(C)n3)CC2)cc1 [Example 74, (2-{4-[4-(4,6-Dimethyl-pyridin-2-yl)-piperazin-1-yl]-phenylaminooxalyl}-3-phenylpyrrol-1-yl)-acetic acid methyl ester]",–,–,–,–,–,–,–,–,–,–,–,–,–,–,–,–,–,"MIC grade, A. fumigatus [1]: 3 (A grade of 3 represents an MIC of less than 1 mg/L); MIC grade, A. fumigatus 210 [2]: 3 (A grade of 3 represents an MIC of less than 1 mg/L); Candida MIC, C. parapsilosis [3]: 3 (A grade of 3 represents an MIC of less than 1 mg/L); MIC grade, A. flavus [4]: 1 (a grade of 1 represents an MIC of greater than 10 mg/L); MIC grade, A. niger [5]: 3 (A grade of 3 represents an MIC of less than 1 mg/L); MIC grade, A. terreus 49 [6]: 2 (A grade of 2 represents an MIC of from 1 to 10 mg/L); MIC grade, A. terreus [7]: 2 (A grade of 2 represents an MIC of from 1 to 10 mg/L); Candida MIC, C. krusei [8]: 2 (A grade of 2 represents an MIC of from 1 to 10 mg/L); Candida MIC, C. glabrata [9]: 3 (A grade of 3 represents an MIC of less than 1 mg/L); Candida MIC, C. tropicalis [10]: 3 (A grade of 3 represents an MIC of less than 1 mg/L); Candida MIC, C. albicans [11]: 2 (A grade of 2 represents an MIC of from 1 to 10 mg/L); MIC grade, A. fumigatus [12]: 3 (A grade of 3 represents an MIC of less than 1 mg/L); MIC grade, A. fumigatus 210 [13]: 3 (A grade of 3 represents an MIC of less than 1 mg/L); MIC grade, A. flavus [14]: 1 (a grade of 1 represents an MIC of greater than 10 mg/L); MIC grade, A. niger [15]: 3 (A grade of 3 represents an MIC of less than 1 mg/L); MIC grade, A. terreus 49 [16]: 2 (A grade of 2 represents an MIC of from 1 to 10 mg/L); MIC grade, A. terreus [17]: 2 (A grade of 2 represents an MIC of from 1 to 10 mg/L)"
"Cc1cc(C)nc(N2CCN(c3ccc(NC(=O)C(=O)c4c(-c5cccs5)cc(C)n4C)cc3)CC2)c1 [Example 13, N-{4-[4-(4,6-Dimethyl-pyridin-2-yl)-piperazin-1-yl]-phenyl}-2-(1,5-dimethyl-3-thiophen-2-yl-1H-pyrrol-2-yl)-2-oxo-acetamide]",< 1 µg/mL,< 1 µg/mL,< 1 µg/mL,< 1 µg/mL,< 1 µg/mL,< 1 µg/mL,< 1 µg/mL,< 1 µg/mL,< 1 µg/mL,< 1 µg/mL,< 1 µg/mL,< 1 µg/mL,< 1 µg/mL,< 1 µg/mL,< 1 µg/mL,< 1 µg/mL,< 1 µg/mL,–
"COCCn1ccc(-c2ccccc2)c1C(=O)C(=O)Nc1ccc(N2CCN(c3cc(C)cc(C)n3)CC2)cc1 [Example 47, N-{4-[4-(4,6-Dimethyl-pyridin-2-yl)-piperazin-1-yl]-phenyl}-2-[1-(2-methoxy-ethyl)-3-phenyl-1H-pyrrol-2-yl]-2-oxo-acetamide]",1 to 10 µg/mL,1 to 10 µg/mL,1 to 10 µg/mL,1 to 10 µg/mL,1 to 10 µg/mL,1 to 10 µg/mL,1 to 10 µg/mL,1 to 10 µg/mL,< 1 µg/mL,1 to 10 µg/mL,1 to 10 µg/mL,< 1 µg/mL,< 1 µg/mL,< 1 µg/mL,1 to 10 µg/mL,< 1 µg/mL,1 to 10 µg/mL,–
"CCOC(=O)Cn1c(C)cc(-c2ccccc2)c1C(=O)C(=O)Nc1ccc(N2CCN(c3cc(C)cc(C)n3)CC2)cc1 [Example 69, (2-{4-[4-(4,6-Dimethyl-pyridin-2-yl)-piperazin-1-yl]-phenylaminooxalyl}-5-methyl-3-phenyl-pyrrol-1-yl)-acetic acid ethyl ester]",–,–,–,–,–,–,–,–,–,–,–,–,–,–,–,–,–,"MIC grade, A. fumigatus [1]: 3 (A grade of 3 represents an MIC of less than 1 mg/L); MIC grade, A. fumigatus 210 [2]: 3 (A grade of 3 represents an MIC of less than 1 mg/L); Candida MIC, C. parapsilosis [3]: 3 (A grade of 3 represents an MIC of less than 1 mg/L); MIC grade, A. flavus [4]: 1 (a grade of 1 represents an MIC of greater than 10 mg/L); MIC grade, A. niger [5]: 3 (A grade of 3 represents an MIC of less than 1 mg/L); MIC grade, A. terreus 49 [6]: 2 (A grade of 2 represents an MIC of from 1 to 10 mg/L); MIC grade, A. terreus [7]: 2 (A grade of 2 represents an MIC of from 1 to 10 mg/L); Candida MIC, C. krusei [8]: 2 (A grade of 2 represents an MIC of from 1 to 10 mg/L); Candida MIC, C. glabrata [9]: 3 (A grade of 3 represents an MIC of less than 1 mg/L); Candida MIC, C. tropicalis [10]: 3 (A grade of 3 represents an MIC of less than 1 mg/L); Candida MIC, C. albicans [11]: 2 (A grade of 2 represents an MIC of from 1 to 10 mg/L); MIC grade, A. fumigatus [12]: 3 (A grade of 3 represents an MIC of less than 1 mg/L); MIC grade, A. fumigatus 210 [13]: 3 (A grade of 3 represents an MIC of less than 1 mg/L); MIC grade, A. flavus [14]: 2 (A grade of 2 represents an MIC of from 1 to 10 mg/L); MIC grade, A. niger [15]: 3 (A grade of 3 represents an MIC of less than 1 mg/L); MIC grade, A. terreus 49 [16]: 3 (A grade of 3 represents an MIC of less than 1 mg/L); MIC grade, A. terreus [17]: 3 (A grade of 3 represents an MIC of less than 1 mg/L)"
"COCCn1c(C)cc(-c2ccccc2)c1C(=O)C(=O)Nc1ccc(N2CCN(CC(C)(C)C)CC2)cc1F [Example 113, N-{4-[4-(2,2-Dimethyl-propyl)-piperazin-1-yl]-2-fluoro-phenyl}-2-[1-(2-methoxy-ethyl)-5-methyl-3-phenyl-1H-pyrrol-2-yl]-2-oxo-acetamide]",1 to 10 µg/mL,< 1 µg/mL,< 1 µg/mL,1 to 10 µg/mL,< 1 µg/mL,1 to 10 µg/mL,< 1 µg/mL,< 1 µg/mL,< 1 µg/mL,< 1 µg/mL,< 1 µg/mL,< 1 µg/mL,< 1 µg/mL,< 1 µg/mL,< 1 µg/mL,< 1 µg/mL,< 1 µg/mL,–

# Second part, led by results:
MIC [1],MIC [2],MIC [3],MIC [4],MIC [5],MIC [6],MIC [7],MIC [8],MIC [9],MIC [10],MIC [11],MIC [12],MIC [13],MIC [14],MIC [15],MIC [16],MIC [17],Compound,other results
< 1 µg/mL,< 1 µg/mL,< 1 µg/mL,> 10 µg/mL,< 1 µg/mL,1 to 10 µg/mL,1 to 10 µg/mL,< 1 µg/mL,< 1 µg/mL,1 to 10 µg/mL,1 to 10 µg/mL,< 1 µg/mL,< 1 µg/mL,< 1 µg/mL,< 1 µg/mL,< 1 µg/mL,< 1 µg/mL,"COCCn1c(C)cc(-c2ccccc2)c1C(=O)C(=O)Nc1ccc(N2CCN(c3cc(C)cc(C)n3)CC2)cc1 [Example 9, N-{4-[4-(4,6-Dimethyl-pyridin-2-yl)-piperazin-1-yl]-phenyl}-2-[1-(2-methoxy-ethyl)-5-methyl-3-phenyl-1H-pyrrol-2-yl]-2-oxo-acetamide]",–
> 10 µg/mL,> 10 µg/mL,< 1 µg/mL,> 10 µg/mL,> 10 µg/mL,> 10 µg/mL,> 10 µg/mL,< 1 µg/mL,< 1 µg/mL,< 1 µg/mL,< 1 µg/mL,> 10 µg/mL,> 10 µg/mL,1 to 10 µg/mL,> 10 µg/mL,> 10 µg/mL,> 10 µg/mL,"Cc1cc(C)nc(N2CCN(c3ccc(NC(=O)C(=O)c4c(-c5ccccc5)cc(C)n4CCN(C)C)cc3)CC2)c1 [Example 86, 2-[1-(2-Dimethylamino-ethyl)-5-methyl-3-phenyl-1H-pyrrol-2-yl]-N-{4-[4-(4,6-dimethyl-pyridin-2-yl)-piperazin-1-yl]-phenyl}-2-oxo-acetamide]",–
